Patent US8168596B2, “Use of cycloartane compounds for treating arthritis” (NuLiv Holding Inc., priority 2008, dated 2012)

Legend:
[1] = tested on: MMP1; assay: Western blotting of MMP1 protein expression induced by PMA in SW1353 cells (Example 2); format: cell-based, human; conditions: for level of MMP1 protein expression (group without AS4 treatment set as 1): then PMA 100 ng/mL 24 h, culture medium
Experimental: Alternatively, the control group was treated with 0.1% dimethyl sulfoxide (DMSO). Phorbol myristate acetate (PMA; Sigma, St. Louis, Mo.) at a concentration of 100 ng/mL was then added into each well and the cells were incubated for 24 hours. The culture medium was collected for western blotting analysis.
Western blotting analysis was carried out based on the following procedure. Cells were washed and lysed in 0.2 mL of lysis buffer (1% NP-40, 50 mM Tris-HCl, pH 7.4, 180 mM NaCl, 1 mM EDTA, 1 mM PMSF, 1 mM NaF, 10 mM Na3VO4) for 30 min at 4° C. After centrifugation at 17500 g for 15 min, the supernatants of cell lysate were collected. Protein concentrations of the samples were measured using the bicinchoninic acid (BCA) protein assay kit according to the manufacturer's protocol (Pierce, Rockford, Ill., USA). Equal amounts of protein samples of concentrated conditioned medium (100 μg) or cell lysate supernatants (50 μg) were mixed with an appropriate volume of 4×SDS sampling buffer and separated on a 8% SDS-PAGE gel. The protein bands separated on the SDS-PAGE gel were blotted onto a polyvinylidene fluoride (PVDF) membrane. The blotted PVDF membrane was washed twice and blocked in freshly prepared Tris-buffered saline (TBS) containing 0.1% Tween-20 and 7% skim milk (TBST) for 2 hours at room temperature. The PVDF membrane was then incubated with a primary antibody against MMP1 protein (Santa Cruz Biotechnology, Santa Cruz, Calif.) for 18 hours at 4° C. Horseradish peroxidase-conjugated anti-goat antibody was used as the secondary antibody. Signals were visualized by an enhanced chemiluminescence kit (Clonetech, Palo Alto, Calif., USA) followed by exposure to X-ray films.
In another testing, the SW1353 cells were treated with 0.1 μM astragaloside IV (AS4), followed by incubation for 24 hours. PMA at a concentration of 100 ng/mL was then added into each well. The culture medium was collected after 6, 12, 18 and 24 hours of PMA treatment for western blotting analysis.

[2] = tested on: MMP-13; assay: Western blot of MMP-13 in PMA- or IL-1β-pre-treated SW1353 cells (Example 6); format: cell-based, human; conditions: 0.1 μM, 48 h
Experimental: The cells were then plated on 6-cm dishes at a density of 1×10^6 cells/dish for 24 hours prior to any treatment. At the beginning of the experiment, the cells were pre-treated with 100 ng/mL PMA or 10 ng/mL IL-1β for 24 hours. The cells were then treated 0.1 μM Dexamethasone with, various astragaloside compounds (0.1 μM) or extracts of Astragalus membranaceous (1 μg/mL) at indicated dosages for another 48 hours. For control sample, 0.1% DMSO was used as a negative control for these experiments. The conditioned culture mediums were then centrifuged, 2-fold concentrated and collected for assay of collagens or MMPs secreted into the culture medium.
Western blotting analysis was carried out on both cultured medium and cell lysates, as follows. The cells were washed and lysed in 0.2 mL of lysis buffer (1% NP-40, 50 mM Tris-HCl, pH 7.4, 180 mM NaCl, 1 mM EDTA, 1 mM PMSF, 1 mM NaF, 10 mM Na3VO4) for 30 min at 4° C. After centrifuging at 17500 g for 15 min, the supernatants of cell lysate were also collected. Protein concentration of the samples were measured using the bicinchoninic acid (BCA) protein assay kit according to the manufacturer's protocol (Pierce, Rockford, Ill., USA). Equal amount of protein samples of concentrated conditioned medium (100 μg) or cell lysate supernatants (50 μg) were mixed with an appropriate volume of 4×SDS sampling buffer and separated by 8% SDS-PAGE gel. The protein bands separated in the SDS-PAGE gel were blotted onto a polyvinylidene fluoride (PVDF) membrane. The blotted PVDF membrane was washed twice and blocked in freshly prepared Tris-buffered saline (TBS) containing 0.1% Tween-20 and 7% skim milk (TBST) for 2 hours at room temperature. […] Horseradish peroxidase-conjugated anti-goat antibody was used as secondary antibody. Signals were visualized by an enhanced chemiluminescence kit (Clonetech, Palo Alto, Calif., USA) followed by exposure to X-ray films.

CC(C)(O)[C@@H]1CC[C@](C)([C@H]2[C@@H](O)C[C@@]3(C)[C@@H]4C[C@H](O[C@@H]5O[C@H](CO)[C@@H](O)[C@H](O)[C@H]5O)[C@H]5C(C)(C)[C@@H](O[C@@H]6OC[C@@H](O)[C@H](O)[C@H]6O)CC[C@@]56C[C@@]46CC[C@]23C)O1 [AS4, Astragaloside IV]
level of MMP1 protein expression (group without AS4 treatment set as 1) ([1]; AS4 0.01 μM 24 h): 0.77
level of MMP1 protein expression (group without AS4 treatment set as 1) ([1]; AS4 0.1 μM 24 h): 0.64
level of expression of MMP1 protein at different time points, compared with only PMA treatment ([1]; AS4 0.1 μM 24 h, then PMA 100 ng/mL, 6, 12, 18 and 24 hours): inhibited
level of MMP1 protein expression (group without AS4 treatment set as 1) ([1]; AS4 1 μM 24 h): 0.55
MMP-13, Western blot, relative to Ctrl 1.00 ([2]; IL-1β-pre-treated SW1353 cell extract): 1.10
MMP-13, Western blot, relative to Ctrl 1.00 ([2]; IL-1β-pre-treated SW1353 culture medium): 0.56
MMP-13, Western blot, relative to Ctrl 1.00 ([2]; PMA-pre-treated SW1353 cell extract): 0.79
